Measured values as given in patent US20190076482A1, “ENHANCED ORGANOID FORMATION AND INTESTINAL STEM CELL RENEWAL” (THE JOHNS HOPKINS UNIVERSITY, priority 2016, published 2019).

How the values were obtained:
[1] = tested on: Hmga1 organoids; assay: Wnt inhibitor treatment of Hmga1 organoids; assay type: cell-based, mouse
Source text: (§1) To better define the role of Hmga1 in regulating Wnt signaling, we cultured Hmga1 organoids in the absence of the Wnt receptor agonist, R-spondin 1 (R-spo1), which is essential for organoid formation in this culture system. R-spo1 is secreted by intestinal stromal cells and binds to the Lgr5 receptor to activate Wnt signaling. The inventors discovered a dramatic difference in the response of Hmga1 organoids to the absence of R-spo1 as compared to the WT controls: Hmga1 organoids continued to survive and proliferate after 2 weeks, while the WT organoids lost their 3D structural organization and ultimately died by day 5 (FIG. 9). […] To further test the link between Hmga1 and Wnt, we treated organoids with the Wnt inhibitors, C59 and IWP-2, both of which block Wnt-mediated transcription and cell proliferation by inhibiting porcupine (PORCN), a protein required for Wnt palmitoylation, secretion, and biological activity. […] The blunted response of Hmga1 organoids to Wnt inhibition further highlights the ability of Hmga1 to amplify Wnt signaling to maintain and support ISCs.
Organoid culture and replating assay. Mouse organoids were established and maintained from isolated crypts of the proximal small intestine as described previously^1-7. […]

[2] = tested on: WT organoids; assay: Wnt inhibitor treatment of WT control organoids; assay type: cell-based, mouse; details: for bud formation: controls
Source text: as §1
Organoid culture and replating assay. Mouse organoids were established and maintained from isolated crypts of the proximal small intestine as described previously^1-7. The basic culture medium (advanced Dulbecco's modified Eagle's medium/F12 supplemented with penicillin/streptomycin, 10 mmol/l HEPES, 13 Glutamax, 13 B27 [all from Life Technologies], and 1 mmol/l N-acetylcysteine [Sigma]) was supplemented with 50 ng/ml murine recombinant EGF (Peprotech), R-spondin 1 (1 μg/ml), and Noggin (10 ng/ml). Wnt inhibitors C59 and IWP-2 are commercially available (Abcam). Conditioned media was produced using HEK293T cells stably transfected with HA-mouse Rspo1-Fc (a gift from Calvin Kuo, Stanford University). Advanced DMEM/F12 supplemented with penicillin/streptomycin, 10 mmol/1 HEPES, and 13 Glutamax was conditioned for 1 week. For the replating assay, an equal number of organoids from each model were mechanically dispersed with a 10 mL pipet after 3-5 days in culture and replated using the conditions described above.

SMILES | organoid survival ([1]; up to 2μM of C59 (FIG. 4f)) | organoid proliferation ([2]; WT controls, exposure to as little as 0.5 μM (FIG. 4f)) | organoid survival and bud formation ([1]; 1 μM of IWP-2 (FIG. 4f)) | bud formation ([2]; 0.5 μM (FIG. 4f)) | bud formation ([2]; 1 μM IWP-2 (FIG. 4f))
Cc1cc(-c2ccc(CC(=O)Nc3ccc(-c4cccnc4)cc3)cc2)ccn1 [C59] | able to survive | failed to proliferate | – | – | –
Cc1ccc2nc(NC(=O)CSc3nc4c(c(=O)n3-c3ccccc3)SCC4)sc2c1 [IWP-2] | – | – | survive and form buds | few buds | no buds
